In data set [1] the test system is BT48. As to the kind of experiment: alamarBlue BTIC viability assay, BT48. As to conditions: Homo sapiens; BTIC line BT48, alamarBlue. Type of data set: cell-based. (In general: Resazurin is reduced to fluorescent resorufin, in cell work by metabolically active cells.)
Data set [2] concerns BT67. The data set can be described thus: alamarBlue BTIC viability assay, BT67. Type of data set: cell-based. Particulars: Homo sapiens; BTIC line BT67, alamarBlue.
Data set [3] has as its system BT68. As to the kind of experiment: alamarBlue BTIC viability assay, BT68. Particulars: Homo sapiens; BTIC line BT68, alamarBlue. The class given is cell-based.
Data set [4] has as its system BT124. As to the kind of experiment: alamarBlue BTIC viability assay, BT124. Particulars: Homo sapiens; BTIC line BT124, alamarBlue. Type of data set: cell-based.
The subject of data set [5] is BT143. The data set can be described thus: alamarBlue BTIC viability assay, BT143. Type of data set: cell-based. Particulars: Homo sapiens; BTIC line BT143, alamarBlue.
In data set [6] the test system is BT189. The data set can be described thus: alamarBlue BTIC viability assay, BT189. The class given is cell-based. Particulars: Homo sapiens; BTIC line BT189, alamarBlue.
For data set [7], the system named is patient-derived GBM BTIC cultures. The data set can be described thus: neurosphere assay, all BTIC cultures tested. The class given is cell-based, human. Particulars: 5 μM.
For data set [8], the system named is BT69. As to the kind of experiment: neurosphere assay, BT69. Type of data set: cell-based, human. Particulars: 3 μM.
The subject of data set [9] is BT147. As to the kind of experiment: neurosphere assay, BT147. The class given is cell-based, human. Particulars: 3 μM.
Data set [10] deals with p-Akt S473. The data set can be described thus: western blotting of p-Akt in BTICs. The class given is cell-based, human. As to the method:
(§1) BTIC spheres were enzymatically dissociated as described above and plated at 10^6 cells/2 mL of media. Cells were treated with vehicle (DMSO), pacritinib, TMZ, or a combination of pacritinib and TMZ and pelleted at select time points (3, 24, and 48 hours). For protein extraction, BTICs were lysed in modified radio-immunoprecipitation assay buffer supplemented with Complete Mini protease (Roche) and Halt phosphatase (Thermo Scientific) inhibitor cocktails. […] Blots were stained with primary antibodies followed by horseradish peroxidase-conjugated secondary antibodies. […] Cell Signaling Technology), STAT3 (1:1000; Cell Signaling Technology), p-Akt S473 (1:1000; Cell Signaling Technology), Akt (1:1000; Cell Signaling Technology), p-p44/42 MAPK (T202/Y204) (1:1000; Cell Signaling Technology), p44/42 MAPK (1:4000; Cell Signaling Technology), poly (ADP-ribose) polymerase (1:1000; Cell Signaling Technology), β-tubulin (1:1000; Cell Signaling Technology), and Actin (1:1000; Santa Cruz Biotechnology). Secondary antibodies included donkey anti-mouse (1:5000; Cell Signaling Technology), donkey anti-goat (1:5000; Millipore), and goat anti-rabbit (1:5000; Cell Signaling Technology). […] Bands were visualized with the SuperSignal West Pico chemiluminescent solution (Thermo Scientific) and an Amersham™ Imager 600 (General Electric).

In data set [11] the test system is p-p44/42 MAPK (T202/Y204). As to the kind of experiment: western blotting of p-p44/42 MAPK in BTICs. Type of data set: cell-based, human. As to the method:
as §1
A general note: In western blotting, separated proteins are transferred to a membrane and probed.

Data set [12] in a line: in vitro. Type of data set: in vitro ADME, mouse. As to conditions: mouse liver microsomes, 30-minute incubation; for % Remaining: 1 μM. As to the method: Working stocks were initially diluted to a concentration of 40 μM in 0.1 M potassium phosphate buffer before addition to the reaction vials. Pooled mouse (CD-1, male) or human (50 donors) liver microsomes were utilized at a final concentration of 0.5 mg/mL. Duplicate wells were used for each time point (0 and 30 minutes). Reactions were carried out at 37°C in a shaker, and the final concentration of DMSO was kept constant at 0.01%. The final volume for each reaction was 100 μL, which included the addition of an NADPH-Regeneration solution (NRS) mix. The NRS mix was comprised of glucose 6-phosphate dehydrogenase (0.4 U/mL), NADP+ (1.3 mM), MgCl2 (3.3 mM), and glucose 6-phosphate (3.3 mM) in assay mixtures. Upon completion of the 30-minute time point, reactions were terminated by the addition of 1.5-volumes (150 μL) of ice-cold acetonitrile with 0.5% formic acid and internal standard. Samples were then centrifuged at 4,000 rpm for 10 minutes to remove debris and precipitated protein. Approximately 150 μL of supernatant was subsequently transferred to a new 96-well microplate for LC-MS analysis. Narrow-window mass extraction LC-MS analysis was performed for all samples using a Waters Xevo quadrupole time-of-flight (QToF) mass spectrometer and an ACQUITY UPLC system, to determine relative peak areas of parent compound.

In data set [13] the test system is BT206 orthotopic xenograft. The data set can be described thus: Kaplan-Meier survival, orthotopic BT206 xenograft. The class given is in vivo. Particulars: BT206 xenografted mice; p < 0.0968 log-rank.
The conditions of data set [14]: human, in vivo, cited from earlier work.
Data set [15] concerns BT12. The data set can be described thus: alamarBlue BTIC viability assay, BT12. As to conditions: Homo sapiens, BT-12, read-out: IC50 (viability).
Protocol: (§2) Accumax (eBioscience) was used to enzymatically dissociate BTIC spheres to single cells. Cells were seeded at 1000 cells per well in 96-well plates and treated with vehicle (DMSO) or drug, 24 hours after plating. BTIC viability was assessed after 7–14 days, once spheres were formed in control wells, by performing the alamarBlue™ (Invitrogen) assay per the manufacturer’s instructions. In brief, the alamar dye was added to each well and plates were read 6 hours later. Fluorescence intensity (excitation 540 nm; emission 590 nm) was measured on a SpectraMax M Series Multi-Mode Microplate reader. […] All experiments were performed in triplicate with a minimum of 3 wells per condition.
(§3) BTICs were treated with suboptimal doses of 1 μM pacritinib (CTI Biopharma), 10 μg/mL TMZ (Sigma), or a combination of pacritinib and TMZ. […] Percent inhibition was determined by normalizing each well to the control well (0.1% DMSO).
For data set [16], the system named is patient-derived GBM BTIC cultures. As to the kind of experiment: alamarBlue viability assay, panel of BTIC cultures.
Protocol: as §2, §3
The mark [17] stands for this setting: BT147 and BT53, low micromolar concentrations, 3 hours.

The structures appear in SMILES notation. pIC50: −log10 of the molar value.

Take `C1=C/COCc2cc(ccc2OCCN2CCCC2)Nc2nccc(n2)-c2cccc(c2)COC/1` [pacritinib]: the pIC50 is 5.99 in data set [1]; 5.97 in data set [2]; 5.91 in data set [3]; 5.88 in data set [4]; 5.87 in data set [5]; 6.00 in [6]. For the same compound, the pIC50 in [15] was 5.78; in data set [16] (Homo sapiens, read-out: IC50 values for the eleven BTIC cultures tested), 5.78 to 6.21. Also, the sphere formation entry is “completely inhibit sphere formation” in data set [7], “completely abolished sphere formation” in data set [8] and “completely abolished sphere formation” in [9]. The “p-Akt S473” value in [10] (BT147 and BT53, 5 and 10 μM) is recorded as “decreased”. In [10] (setting [17]), the “phosphorylation of AKT S473” value is given as “unchanged levels of phosphorylation”. Further, the “p-p44/42 MAPK” value in data set [11] (BT53, 5 and 10 μM) is on record as “decreased p-p44/42 MAPK”. Besides, in data set [11] (setting [17]), the “phosphorylation of p44/42 MAPK (T202/Y204)” value was “unchanged levels of phosphorylation”. In addition, the stability rating entry in data set [12] is listed as “Unstable”. The “% Remaining” value in data set [12] is reported as under 1%; in data set [12] (listed as Pacritinib (run 1)), 0.3%; in [12] (listed as Pacritinib (run 2)) it was 0.6%. Moreover, in data set [13], the “efficacy of treatment alone (Kaplan-Meier survival)” value is “no efficacy”. In data set [14] (100 mg), the maximum concentration (Cmax) was 7.8 µM. The “mean maximum concentration (Cmax)” value in [14] (100 mg) is recorded as 3699 ng/mL. The “median time to maximum concentration (Tmax)” value in [14] is 5 h. In addition, the viability reduced in [16] (at 1.5 μM, in 10/11 BTIC cultures tested) amounted to 50%.

For orientation: pIC50 means −log10 of the IC50, conventionally taken in molar units. In general, Cmax refers to the peak of the concentration-time curve.
